Assay results taken from patent US10065972B2, “Bicyclic or tricyclic heterocyclic compound” (MITSUBISHI TANABE PHARMA CORPORATION, priority 2014, dated 2018).

Biological target: human recombinant KAT-II (Homo sapiens (Human), UniProt Q8N5Z0)
Experiment: KAT-II inhibitory test
Type: biochemical
Conditions: 3.0 μmol/L kynurenine, 37° C., 1 hr, pH 8.0; kynurenic acid quantified by HPLC
Procedure: The compounds described in the above-mentioned Examples were used for the KAT-II inhibitory test.
Preparation of Human Recombinant KAT-II
Human recombinant KAT-II was prepared as follows.
His tag and maltose binding protein tag were added to the N-terminal of a gene encoding human KAT-II (Genbank accession number: AF481738.1), and the obtained gene was incorporated into pET32 (Merck Nihon Millipore), which is an Escherichia coli expression vector. Human recombinant KAT-II produced by BL21(DE3) Escherichia coli (Merck Nihon Millipore, 69450) transformed using the plasmid was purified using an amylose resin column (New England Biolabs, #800-21 L).
The inhibitory action of the test compound on human recombinant KAT-II was determined by the following method.
To a reaction mixture (45 μL) containing 3.0 μmol/L kynurenine, 10 μmol/L pyridoxal phosphate, 2.0 ng/μL human recombinant KAT-II, and 150 mmol/L tris(hydroxymethyl)aminomethane-acetate buffer (pH 8.0) was added a 10% dimethyl sulfoxide solution (5 μL) of each test compound prepared, and the mixture was reacted at 37° C. for 1 hr. After the reaction, 50% trichloroacetic acid (5 μL) was added to terminate the reaction.
The resultant kynurenic acid was quantified as follows by high performance liquid chromatography. An enzyme reaction mixture was separated by an octadecylsilane reversed-phase column (SC-50DS, Eicom Corporation; mobile phase: 250 mmol/L zinc acetate, 50 mmol/L sodium acetate, and 5.0% acetonitrile (pH 6.2)) incubated at 30° C., and kynurenic acid was quantified using a fluorescence detector (RF-20Axs, Shimadzu Corporation) at excitation wavelength 354 nm, detection wavelength 460 nm. The analytical curve was drawn every time by an external standard method. Each test compound was tested by dual measurement at each concentration.

Chain of human recombinant KAT-II (Q8N5Z0 30-425): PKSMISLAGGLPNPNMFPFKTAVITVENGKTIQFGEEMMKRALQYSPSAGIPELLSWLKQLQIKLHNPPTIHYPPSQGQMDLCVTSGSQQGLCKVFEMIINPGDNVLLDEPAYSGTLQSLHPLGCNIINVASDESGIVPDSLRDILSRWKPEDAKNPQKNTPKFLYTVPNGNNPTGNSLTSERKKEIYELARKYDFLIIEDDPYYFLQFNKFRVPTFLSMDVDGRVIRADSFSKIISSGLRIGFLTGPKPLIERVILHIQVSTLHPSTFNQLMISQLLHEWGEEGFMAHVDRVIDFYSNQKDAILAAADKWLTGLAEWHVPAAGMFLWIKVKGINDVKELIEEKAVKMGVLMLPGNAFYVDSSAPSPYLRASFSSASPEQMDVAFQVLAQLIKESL

Structure (SMILES)	IC50
Cn1c(CN2CCOCC2)nc2sc([C@H]3CCCN3C(=O)OCc3ccccc3)nc2c1=O [Example 8, (R)-2-{6-methyl-5-[(morpholin-4-yl)methyl]-7-oxo-6,7-dihydro[1,3]thiazolo[5,4-d]pyrimidin-2-yl}pyrrolidine-1-carboxylic acid benzyl ester]	610 nM
CCc1nc2sc([C@H]3CCCN3C(=O)NCc3ccccc3)nc2c(=O)n1C [Example 9, (R)-N-benzyl-2-(5-ethyl-6-methyl-7-oxo-6,7-dihydro[1,3]thiazolo[5,4-d]pyrimidin-2-yl)pyrrolidine-1-carboxamide]	250 nM
CC(C)n1c(C(F)(F)F)nc2sc([C@H]3CCCN3C(=O)NCc3ccccc3Cl)nc2c1=O [Example 11, (R)-N-(2-chlorobenzyl)-2-[7-oxo-6-(propan-2-yl)-5-trifluoromethyl-6,7-dihydro[1,3]thiazolo[5,4-d]pyrimidin-2-yl]pyrrolidine-1-carboxamide]	6200 nM
CCc1nc2sc([C@H]3CCCN3C(=O)NC3(c4ccccc4)CC3)nc2c(=O)n1C [Example 12, (R)-2-(5-ethyl-6-methyl-7-oxo-6,7-dihydro[1,3]thiazolo[5,4-d]pyrimidin-2-yl)-N-(1-phenylcyclopropyl)pyrrolidine-1-carboxamide]	130 nM
CCc1nc2sc([C@H]3CCCN3C(=O)N[C@@H]3CCc4ccccc43)nc2c(=O)n1C [Example 13, (R)-5-ethyl-2-{1-[((R)-indan-1-yl)aminocarbonyl]pyrrolidin-2-yl}-6-methyl-6,7-dihydro[1,3]thiazolo[5,4-d]pyrimidin-7-one]	560 nM
CCc1nc2sc([C@H]3CCCN3C(=O)CN3CCCc4ccccc43)nc2c(=O)n1C [Example 14, (R)-2-{1-[2-(3,4-dihydro-2H-quinolin-1-yl)acetyl]pyrrolidin-2-yl}-5-ethyl-6-methyl-6H-[1,3]thiazolo[5,4-d]pyrimidin-7-one]	57 nM
CCc1nc2sc([C@H]3CCCN3C(=O)NC(C)(C)c3ccccc3)nc2c(=O)n1C [Example 15, (R)-2-(5-ethyl-6-methyl-7-oxo-6,7-dihydro[1,3]thiazolo[5,4-d]pyrimidin-2-yl)-N-(1-methyl-1-phenylethyl)pyrrolidine-1-carboxamide]	1100 nM
CCc1nc2sc([C@H]3CCCN3C(=O)N[C@H](C)c3ccccc3)nc2c(=O)n1C [Example 17, (R)-2-(5-ethyl-6-methyl-7-oxo-6,7-dihydro[1,3]thiazolo[5,4-d]pyrimidin-2-yl)-N-((R)-1-phenylethyl)pyrrolidine-1-carboxamide]	1600 nM
Cc1noc(-c2nc3sc([C@H]4CCCN4C(=O)Oc4ccccc4)nc3c(=O)n2C)n1 [Example 19, (R)-2-[6-methyl-5-(3-methyl-[1,2,4]oxadiazol-5-yl)-7-oxo-6,7-dihydro[1,3]thiazolo[5,4-d]pyrimidin-2-yl]pyrrolidine-1-carboxylic acid phenyl ester]	43 nM
CCc1nc2sc([C@H]3CCCN3C(=O)Oc3ccccc3)nc2c(=O)n1C [Example 28, (R)-2-(5-ethyl-6-methyl-7-oxo-6,7-dihydro[1,3]thiazolo[5,4-d]pyrimidin-2-yl)pyrrolidine-1-carboxylic acid phenyl ester]	25 nM
Cc1nc2sc([C@H]3CCCN3C(=O)Oc3ccccc3)nc2c(=O)n1C1CCOCC1 [Example 32, (R)-2-[5-methyl-7-oxo-6-(tetrahydro-2H-pyran-4-yl)-6,7-dihydro[1,3]thiazolo[5,4-d]pyrimidin-2-yl]pyrrolidine-1-carboxylic acid phenyl ester]	400 nM
Cc1cccc(OC(=O)N2CCC[C@@H]2c2nc3c(=O)n(C)c(C4CCOCC4)nc3s2)c1 [Example 36, (R)-2-[6-methyl-7-oxo-5-(tetrahydro-2H-pyran-4-yl)-6,7-dihydro[1,3]thiazolo[5,4-d]pyrimidin-2-yl]pyrrolidine-1-carboxylic acid 3-methylphenyl ester]	18 nM
CC(C)c1nc2sc([C@H]3CCCN3C(=O)Oc3ccccc3)nc2c(=O)[nH]1 [Example 63, (R)-2-[7-oxo-5-(propan-2-yl)-6,7-dihydro[1,3]thiazolo[5,4-d]pyrimidin-2-yl]pyrrolidine-1-carboxylic acid phenyl ester]	15 nM
O=C(Oc1ccccc1)N1CCC[C@@H]1c1nc2c(=O)[nH]c(-c3ccccc3)nc2s1 [Example 65, (R)-2-(7-oxo-5-phenyl-6,7-dihydro[1,3]thiazolo[5,4-d]pyrimidin-2-yl)pyrrolidine-1-carboxylic acid phenyl ester]	25 nM
C[C@H](c1nc2c(=O)[nH]c(C3(Cl)CC3)nc2s1)N(C)C(=O)Oc1ccccc1 [Example 85, N-{(R)-1-[5-(1-chlorocyclopropyl)-7-oxo-6,7-dihydro[1,3]thiazolo[5,4-d]pyrimidin-2-yl]ethyl}-N-methylcarbamic acid phenyl ester]	170 nM

Now from value to compound:

IC50	Structure (SMILES)
3900 nM	Cc1cc(=O)n2nc(N3C[C@@H]4C[C@@H]4[C@@H]3C(=O)NCc3ccccc3)sc2n1 (racemic) [Example 661, (1SR,2RS,5RS)-N-benzyl-3-(7-methyl-5-oxo-5H-[1,3,4]thiadiazolo[3,2-a]pyrimidin-2-yl)-3-azabicyclo[3.1.0]hexane-2-carboxamide]
14 nM	O=C(Oc1ccccc1)N1CCC[C@@H]1c1nc2c(=O)[nH]c(-c3ccc(F)cc3F)nc2s1 [Example 67, (R)-2-[5-(2,4-difluorophenyl)-7-oxo-6,7-dihydro[1,3]thiazolo[5,4-d]pyrimidin-2-yl]pyrrolidine-1-carboxylic acid phenyl ester]
40 nM	Cc1ccccc1-c1nc2sc([C@H]3CCCN3C(=O)Oc3ccccc3)nc2c(=O)[nH]1 [Example 69, (R)-2-[5-(2-methylphenyl)-7-oxo-6,7-dihydro[1,3]thiazolo[5,4-d]pyrimidin-2-yl]pyrrolidine-1-carboxylic acid phenyl ester]
84 nM	O=C(Oc1ccccc1)N1CCC[C@@H]1c1nc2c(=O)[nH]c(C3CCC(F)(F)CC3)nc2s1 [Example 74, (R)-2-[5-(4,4-difluorocyclohexyl)-7-oxo-6,7-dihydro[1,3]thiazolo[5,4-d]pyrimidin-2-yl]pyrrolidine-1-carboxylic acid phenyl ester]
8.6 nM	O=C(Oc1ccccc1)N1CCC[C@@H]1c1nc2c(=O)[nH]c(C3(CF)CC3)nc2s1 [Example 80, (R)-2-{5-[1-(fluoromethyl)cyclopropyl]-7-oxo-6,7-dihydro[1,3]thiazolo[5,4-d]pyrimidin-2-yl}pyrrolidine-1-carboxylic acid phenyl ester]
6.1 nM	Cc1cccc(OC(=O)N2CCC[C@@H]2c2nc3c(=O)[nH]c(C4(C#N)CC4)nc3s2)c1 [Example 94, (R)-2-[5-(1-cyanocyclopropyl)-7-oxo-6,7-dihydro[1,3]thiazolo[5,4-d]pyrimidin-2-yl]pyrrolidine-1-carboxylic acid 3-methylphenyl ester]
19 nM	COCC1(c2nc3sc([C@H]4CCCN4C(=O)Oc4ccccc4)nc3c(=O)[nH]2)CC1 [Example 96, (R)-2-{5-[1-(methoxymethyl)cyclopropyl]-7-oxo-6,7-dihydro[1,3]thiazolo[5,4-d]pyrimidin-2-yl}pyrrolidine-1-carboxylic acid phenyl ester]
13 nM	O=C(Cc1ccccc1)N1CCC[C@@H]1c1nc2c(=O)[nH]c(C3(C(F)(F)F)CC3)nc2s1 [Example 97, 2-[(R)-1-(phenylacetyl)pyrrolidin-2-yl]-5-[1-(trifluoromethyl)cyclopropyl]-6H-[1,3]thiazolo[5,4-d]pyrimidin-7-one]
